Values quoted from earlier work in US20030194514A1 (priority 2002, published 2003).

What was measured:
[1] = diluent level of 15%; cited from earlier work
[2] = per Brit. 1,132,417; cited from earlier work
[3] = especially at a dilution level of 20-30%; cited from earlier work

## c1ccccc1 [benzene]
[1]
  Judgement as stabilizer for propargyl bromide by impact tests: poor stabilizers

## ClC(Cl)Cl [chloroform]
[1]
  Judgement as stabilizer for propargyl bromide by impact tests: poor stabilizers
[2]
  Effectiveness of the solvent in stabilizing propargyl bromide: ineffective

## CCOCC [diethyl ether]
[1]
  Judgement as stabilizer for propargyl bromide by impact tests: appeared promising

## CC(C)OC(C)C [diisopropyl ether]
[1]
  Judgement as stabilizer for propargyl bromide by impact tests: appeared promising

## C1COCCO1 [dioxane]
[2]
  Effectiveness of the solvent in stabilizing propargyl bromide: effective

## CCO [ethanol]
[2]
  Effectiveness of the solvent in stabilizing propargyl bromide: effective

## NC=O [formamide]
[1]
  Judgement as stabilizer for propargyl bromide by impact tests: poor stabilizers
[2]
  Effectiveness of the solvent in stabilizing propargyl bromide: ineffective

## CCCCCC [hexane]
[1]
  Judgement as stabilizer for propargyl bromide by impact tests: poor stabilizers
[2]
  Effectiveness of the solvent in stabilizing propargyl bromide: ineffective

## C1CCOC1 [tetrahydrofuran]
[2]
  Effectiveness of the solvent in stabilizing propargyl bromide: effective

## Cc1ccccc1 [toluene]
[3]
  Judgement as stabilizer in confinement tests: material of choice

## xylene
[2]
  Effectiveness of the solvent in stabilizing propargyl bromide: effective
